Assay results published in article PMC12362618, “Development of the First Small-Molecule Inhibitor Targeting Oncostatin M for Treatment of Breast Cancer” (Journal of Medicinal Chemistry, 2025).
Entries after “also recorded” stand apart in the source; their conditions may differ.

Columns and labels:
[1] = tested on: OSM-induced pSTAT3 in MDA-MB-231 human breast cancer cells; experiment: pSTAT3 ELISA in MDA-MB-231 cells treated with OSM ± SMI; assay type: cell-based; settings: SMI 10 μM, OSM 10 ng/mL, 30 min
Description: 2 High-throughput virtual screening identifies three novel compounds capable of interacting with site III of OSM. […] (F) Structure of parent SMI-10. Data are presented as mean ± SD relative to + OSM treatment, analyzed by one-way ANOVA with Tukey’s posttest *p < 0.05, **p < 0.01. To test the effect of SMIs in vitro, each SMI was incubated with OSM for a period of 1 h at 37 °C, and T47D and MDA-MB-231 human breast cancer cell lines were subsequently treated with OSM (10 ng/mL) and/or SMI-10 (10 μM) analogs for 30 min and measured for pSTAT3 levels via ELISA. The results of these assays are presented graphically in Figure and, for T47D cells, in Table as a percentage of reduction from +OSM alone. For phospho-STAT3 (pSTAT3) ELISAs, T47D MDA-MB-231, and MCF-7 cells were seeded in 12- or 24-well plates at 70–75% confluency and allowed to adhere overnight, after which cells were serum-starved with serum-free RPMI-1640 for 4 h. SMIs (10 μM in DMSO or serially diluted to specified concentrations from a 100 mM stock in DMSO) and human recombinant OSM (10 ng/mL; PeproTech; #300–10T-10UG) were incubated in serum-free RPMI-1640 medium for 1 h. After incubation, the SMI-10 analogs or SMI-10B13 and OSM were added to the serum-starved cells for 30 min. Immediately afterward, the cells were lysed using 1x PathScan Sandwich ELISA Lysis Buffer (Cell Signaling Technology; #7018S), collected, and stored at −20 °C. Lysates were analyzed for pSTAT3 levels using either the PathScan Phospho-STAT3 (Tyr705) Sandwich ELISA Antibody Pair kit (Cell Signaling Technology; #7146) or Human/Mouse Phospho-STAT3 (Y705) DuoSet IC ELISA (R&D Systems; DYC4607B), according to manufacture’s protocol. pSTAT3 expression was measured with absorbance at 450 nm and quantified by comparison relative to OSM-induced pSTAT3 levels. To calculate an IC50 for SMI-10B13, a standard curve was generated as described in the DuoSet IC ELISA datasheet to determine the concentration of pSTAT3.

OSM = target: T1, OSM (Homo sapiens, UniProt P13725); experiment: Fluorescence quenching assay of SMI binding to OSM; settings: average of three independent replicates, errors at 95% confidence level, read-out: KD (OSM-SMI dissociation constant)
T1 sequence (P13725 26-252): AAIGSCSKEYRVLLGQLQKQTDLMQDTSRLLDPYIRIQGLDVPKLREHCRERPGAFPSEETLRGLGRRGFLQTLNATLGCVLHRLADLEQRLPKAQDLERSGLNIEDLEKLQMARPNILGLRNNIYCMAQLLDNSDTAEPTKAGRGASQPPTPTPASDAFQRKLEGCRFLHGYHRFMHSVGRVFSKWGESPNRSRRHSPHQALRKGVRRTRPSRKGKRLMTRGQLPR
Description: To perform fluorescence quenching assays, 2 mL of 1 μM OSM solution in polymethylmethacrylate cuvettes was prepared by dilution of a concentrated stock solution of recombinant OSM with buffer solution (100 mM sodium chloride, 50 mM sodium phosphate, 50 mM freshly added DTT, pH = 6.6). Cuvettes were titrated with 5 μL increments of a 1 mM small molecule stock solution in DMSO, with a cuvette titrated with an equivalent volume of DMSO as a control. […] In cases where little to no significant quenching was observed, the titration was supplemented with 2.5 μL increments of a 10 mM small molecule stock solution to increase the concentration delivered. The fluorescence intensity measurements were obtained on a Cary Eclipse spectrofluorometer equipped with a Xenon arc lamp. Fluorescence intensities were measured by exciting at 280 nm (4 nm slit width) and recording the emission from 345 to 355 nm with a photomultiplier tube voltage of 700 V, unless otherwise noted. Each titration point was normalized to OSM’s native fluorescence intensity, corrected by adding the decrease in fluorescence intensity caused by dilution with DMSO, and the average value of the three replicates for each point was plotted against concentration of small molecule delivered and fit to a modified Stern–Volmer function as described by Charlier and Plapp. Binding affinity (K D) values were obtained […] from the fitting routine. All curve-fitting analysis was performed in GraphPad Prism 8.0.

[2] = tested on: OSM-induced pSTAT3 in T47D human breast cancer cells; experiment: pSTAT3 ELISA in T47D cells treated with OSM ± SMI; assay type: cell-based; settings: T47D, 30 min; for Relative pSTAT3 Levels (Table 1, SMI-10A-10J): SMI 10 μM + OSM 10 ng/mL, ELISA, relative to +OSM, no-treatment blank subtracted; for Inhibition of OSM-induced pSTAT3 via ELISA: SMI 10 μM, OSM 10 ng/mL
Description: To test the effect of SMIs in vitro, each SMI was incubated with OSM for a period of 1 h at 37 °C, and T47D and MDA-MB-231 human breast cancer cell lines were subsequently treated with OSM (10 ng/mL) and/or SMI-10 (10 μM) analogs for 30 min and measured for pSTAT3 levels via ELISA. The results of these assays are presented graphically in Figure and, for T47D cells, in Table as a percentage of reduction from +OSM alone. For phospho-STAT3 (pSTAT3) ELISAs, T47D MDA-MB-231, and MCF-7 cells were seeded in 12- or 24-well plates at 70–75% confluency and allowed to adhere overnight, after which cells were serum-starved with serum-free RPMI-1640 for 4 h. SMIs (10 μM in DMSO or serially diluted to specified concentrations from a 100 mM stock in DMSO) and human recombinant OSM (10 ng/mL; PeproTech; #300–10T-10UG) were incubated in serum-free RPMI-1640 medium for 1 h. After incubation, the SMI-10 analogs or SMI-10B13 and OSM were added to the serum-starved cells for 30 min. Immediately afterward, the cells were lysed using 1x PathScan Sandwich ELISA Lysis Buffer (Cell Signaling Technology; #7018S), collected, and stored at −20 °C. Lysates were analyzed for pSTAT3 levels using either the PathScan Phospho-STAT3 (Tyr705) Sandwich ELISA Antibody Pair kit (Cell Signaling Technology; #7146) or Human/Mouse Phospho-STAT3 (Y705) DuoSet IC ELISA (R&D Systems; DYC4607B), according to manufacture’s protocol. pSTAT3 expression was measured with absorbance at 450 nm and quantified by comparison relative to OSM-induced pSTAT3 levels. To calculate an IC50 for SMI-10B13, a standard curve was generated as described in the DuoSet IC ELISA datasheet to determine the concentration of pSTAT3.

[3] = tested on: OSM-mediated signaling (pSTAT3, pAKT, pJNK, pERK) in T47D cells; experiment: Immunoblot of OSM-mediated signaling in T47D cells; assay type: cell-based, human; settings: SMI 10 μM, OSM 10 ng/mL, 30 min
Description: For immunoblot analysis, T47D breast cancer cells were treated and collected in the same manner as described above for the ELISA preparation. After lysate collection, samples were run on a 10% SDS-PAGE gel and transferred to a nitrocellulose membrane via semidry transfer. Blots were rinsed with DI H2O and allowed to completely dry at room temperature before blocking with LiCor Intercept PBS Blocking Buffer (LiCor, Lincoln, NE; Cat# 927-90001) for 1 h. After blocking, primary antibodies (1:1000) suspended in blocking buffer supplemented with 0.1% Tween were added, shaken at room temperature for 1 h, and stored at 4 °C overnight. Membranes were then washed 6 times for 5 minutes each with 1X PBS supplemented with 0.5% Tween while shaking at room temperature, and secondary antibodies (1:15,000) were applied and incubated for 1 h. Afterward, membranes were washed as previously described above and imaged at 700 nm using the LiCor Odyssey CLx Imaging System. Quantification of immunoblots was performed using the LiCor Image Studio software, normalizing to β-Actin, and calculating relative fold change compared to nontreated samples. Antibodies used included phospho-STAT3 (Y705) (Cell Signaling Technology, Danvers, MA; cat. no. 9145), phospho-AKT (S473) (Cell Signaling Technology, Danvers, MA; cat. no. 4060), phospho-JNK ([…]/[…]) (Cell Signaling Technology, Danvers, MA; cat. no. 4668), phospho-ERK (T202/Y204) (Cell Signaling Technology, Danvers, MA; cat. no. 9101), β-Actin (Cell Signaling Technology; cat. no. 3700), and donkey antirabbit IRDye 800CW (LiCor, Lincoln, NE; Cat# 925-32213).

[4] = tested on: T47D and MCF-7 human breast cancer cells; experiment: MTS cell viability assay; assay type: cell-based
Description: Cell viability was assessed using the CellTiter 96 AQueous One Solution Cell Proliferation Assay (Promega, cat. no. G3580), following the manufacturer’s instructions. Briefly, T47D and MCF-7 human breast cancer cells were seeded in 96-well plates at a density of 10,000 cells/well in 100 μL of complete growth medium and allowed to adhere overnight. Cells were then treated with a serial dilution (100 μM to 0.1 nM) of SMI-10B, SMI-10B13, Temozolomide (positive control), or vehicle (DMSO) for 24 h. Following treatment, 20 μL of MTS reagent was added directly to each well, and plates were incubated at 37 °C in a humidified incubator with 5% CO2 and imaged after 1 h of incubation. Absorbance was measured at 490 nm by using a microplate reader. Cell viability was expressed as a percentage relative to the vehicle-treated controls, and experiments were performed in triplicate.

O=[N+]([O-])c1c(/C=N/Nc2ccccc2)oc(-c2ccc3c(c2)OCO3)c1-c1ccc2c(c1)OCO2 [SMI-10]
Inhibition of OSM-induced pSTAT3 via ELISA [1]: effective inhibitors of OSM

O=C(/C=C/c1ccccc1)c1cc(-c2ccc3c(c2)OCO3)c(-c2ccc3c(c2)OCO3)o1 [SMI-10G, (E)-1-(4,5-Bis(benzo[d][1,3]dioxol-5-yl)furan-2-yl)-3-phenylprop-2-en-1-one]
Kd (OSM): 21.9 ± 3.5 µM
Relative pSTAT3 Levels (Table 1, SMI-10A-10J) [2]: 8.8%
Inhibition of OSM-induced pSTAT3 via ELISA [2]: capable of inhibiting OSM-induced pSTAT3
Inhibition of OSM-mediated signaling cascades by immunoblot (words) [3]: capable of inhibiting multiple cascades; also recorded: significant reductions, near nontreated levels
Inhibition of OSM-induced pSTAT3 via ELISA [1]: capable of inhibiting OSM-induced pSTAT3

Cn1nnc2c(C(N)=O)ncn2c1=O [Temozolomide, reference compound]
Cytotoxicity / cell viability via MTS assay [4]: moderate toxicity as concentration increases

O=C(/C=C/c1cc(-c2ccc3c(c2)OCO3)c(-c2ccc3c(c2)OCO3)o1)c1ccccc1 [SMI-10C]
Kd (OSM): 32.5 ± 3.4 µM
Relative pSTAT3 Levels (Table 1, SMI-10A-10J) [2]: 11.9%
Inhibition of OSM-induced pSTAT3 via ELISA [2]: capable of inhibiting OSM-induced pSTAT3
Inhibition of OSM-mediated signaling cascades by immunoblot (words) [3]: capable of inhibiting multiple cascades; also recorded: significant reductions, near nontreated levels
Inhibition of OSM-induced pSTAT3 via ELISA [1]: capable of inhibiting OSM-induced pSTAT3

c1ccc(CNCc2cc(-c3ccc4c(c3)OCO4)c(-c3ccc4c(c3)OCO4)o2)cc1 [SMI-10F, N-Benzyl-1-(4,5-bis(benzo[d][1,3]dioxol-5-yl)furan-2-yl)methanamine]
Kd (OSM): 16.8 ± 4.1 µM
Relative pSTAT3 Levels (Table 1, SMI-10A-10J) [2]: 10.1%
Inhibition of OSM-induced pSTAT3 via ELISA [2]: capable of inhibiting OSM-induced pSTAT3
Inhibition of OSM-mediated signaling cascades by immunoblot (words) [3]: capable of inhibiting multiple cascades; also recorded: significant reductions, near nontreated levels
Inhibition of OSM-induced pSTAT3 via ELISA [1]: capable of inhibiting OSM-induced pSTAT3

C(=N\Nc1ccccc1)/c1cc(-c2ccc3c(c2)OCO3)c(-c2ccc3c(c2)OCO3)o1 [SMI-10E, (E)-1-((4,5-Bis(benzo[d][1,3]dioxol-5-yl)furan-2-yl)methylene)-2-phenylhydrazine]
Kd (OSM): 21.2 ± 2.7 µM
Relative pSTAT3 Levels (Table 1, SMI-10A-10J) [2]: 10.2%
Inhibition of OSM-induced pSTAT3 via ELISA [2]: capable of inhibiting OSM-induced pSTAT3
Inhibition of OSM-mediated signaling cascades by immunoblot (words) [3]: capable of inhibiting multiple cascades; also recorded: significant reductions, near nontreated levels
Inhibition of OSM-induced pSTAT3 via ELISA [1]: capable of inhibiting OSM-induced pSTAT3

CCOC(=O)/C=C/c1cc(-c2ccc3c(c2)OCO3)c(-c2ccc3c(c2)OCO3)o1 [SMI-10D, Ethyl (E)-3-(4,5-Bis(benzo[d][1,3]dioxol-5-yl)furan-2-yl)acrylate]
Kd (OSM): 20.9 ± 2.4 µM
Relative pSTAT3 Levels (Table 1, SMI-10A-10J) [2]: 9.0%
Inhibition of OSM-induced pSTAT3 via ELISA [2]: capable of inhibiting OSM-induced pSTAT3
Inhibition of OSM-mediated signaling cascades by immunoblot (words) [3]: capable of inhibiting multiple cascades; also recorded: significant reductions, near nontreated levels
Inhibition of OSM-induced pSTAT3 via ELISA [1]: capable of inhibiting OSM-induced pSTAT3
